# Measured values as given in patent publication US20050137259A1, “Insulin secretion potentiator” (Use- Techno Corporation, priority 2003, published 2005).
# Legend:
# Type in all cases: in vivo, human
# [1] = tested on: borderline diabetic patients; assay: Blood glucose and blood insulin levels after administration in the absence of glucose load (fasted), crossover double-blind; conditions: single 10 mg dose; for blood glucose level (G) / blood insulin level (I): fasted, no glucose load; for blood insulin level (I): unit assumed
# Procedure: Three borderline diabetic patients (person, person and person) were instructed to fast from 8:00 pm (to ensure absence of glucose load), and were administered a placebo once or the test agent (corosolic acid) once at 9:00 am on the following day, after which the changes in blood glucose level and blood insulin level were measured. The participants were given absolutely no information regarding placebo or test agent (crossover, double-blind). The corosolic acid was administered in a single 10 mg dose, and each test was conducted twice.
# FIG. 3 is a graph showing changes in blood glucose levels with administration of corosolic acid and a placebo in the absence of a glucose load, and FIG. 4 is a graph showing changes in blood insulin levels with administration of corosolic acid and a placebo in the absence of a glucose load.
# [2] = tested on: borderline diabetic patients; assay: Glucose tolerance test (75 g glucose), blood insulin level (IRI), double-blind crossover; conditions: 10 mg oral, 31 borderline diabetic patients, p<0.05
# Procedure: A glucose tolerance test was performed after administration of corosolic acid or a placebo, in a double-blind crossover manner, and the blood insulin level (IRI: immunoreactive insulin) was assayed.
# (§1) First, 31 borderline diabetic patients as test subjects were orally administered corosolic acid (10 mg, >99% purity) or a placebo, and blood was sampled immediately thereafter with the blood insulin level at that time designated as the value at 0 minutes. Immediately after blood sampling, 75 g of glucose was orally administered to each test subject to start a glucose tolerance test, and blood was sampled after periods of 30 minutes, 60 minutes, 90 minutes, 120 minutes and 180 minutes for measurement of the blood insulin level.
# FIG. 1 is a graph showing the blood insulin levels during the glucose tolerance test. The horizontal axis represents time (min) after start of the glucose tolerance test, and the vertical axis represents IRI (μU/mL). In the graph, (a) is a case with administration of corosolic acid and (b) is a case with administration of the placebo.
# [3] = tested on: borderline diabetic patients; assay: Glucose tolerance test (75 g glucose), blood glucose level (plasma glucose concentration), double-blind crossover; conditions: 10 mg oral, 35 borderline diabetic patients, p<0.05
# Procedure: The following test was conducted to confirm that corosolic acid has a hypoglycemic effect. A glucose tolerance test was performed after administration of corosolic acid, banaba extract or a placebo, in a double-blind crossover manner, and the blood glucose level (plasma glucose concentration) was assayed.
# as §1, with “35” for “31”, “purity), banaba extract (trade name: COROSOLIA M, product of Use Techno Corporation; administered at 10 mg of corosolic acid)” for “purity)”, “glucose” for “insulin”
# FIG. 2 is a graph showing blood glucose levels during the glucose tolerance test. The horizontal axis represents time (min) after start of the glucose tolerance test, and the vertical axis represents plasma glucose concentration (mg/dL). In the graph, (c) is a case with administration of corosolic acid, (d) is a case with administration of banaba leaf extract and (e) is a case with administration of the placebo.
# [4] = 120 minutes after start of glucose tolerance test
smiles,measurement,setting,value
C[C@H]1[C@H](C)CC[C@]2(C(=O)O)CC[C@]3(C)C(=CC[C@@H]4[C@@]5(C)C[C@@H](O)[C@H](O)C(C)(C)[C@@H]5CC[C@]43C)[C@H]12 [corosolic acid],"blood glucose levels, corosolic acid versus placebo","[1]; absence of glucose load, FIG. 3",no significant difference
same,"blood insulin levels, corosolic acid versus placebo","[1]; absence of glucose load, FIG. 4",no significant difference
same,blood glucose level (G),"[1]; participant A, after 0 min",110 mg/dL
same,blood insulin level (I),"[1]; participant A, after 0 min",9 µU/mL
same,blood glucose level (G),"[1]; participant A, after 30 min",104 mg/dL
same,blood insulin level (I),"[1]; participant A, after 30 min",6.9 µU/mL
same,blood glucose level (G),"[1]; participant A, after 60 min",107 mg/dL
same,blood insulin level (I),"[1]; participant A, after 60 min",6.6 µU/mL
same,blood glucose level (G),"[1]; participant A, after 90 min",104 mg/dL
same,blood insulin level (I),"[1]; participant A, after 90 min",5.9 µU/mL
same,blood glucose level (G),"[1]; participant A, after 120 min",104 mg/dL
same,blood insulin level (I),"[1]; participant A, after 120 min",6.6 µU/mL
same,blood glucose level (G),"[1]; participant A, after 180 min",102 mg/dL
same,blood insulin level (I),"[1]; participant A, after 180 min",5.1 µU/mL
same,blood glucose level (G),"[1]; participant B, after 0 min",144 mg/dL
same,blood insulin level (I),"[1]; participant B, after 0 min",2.5 µU/mL
same,blood glucose level (G),"[1]; participant B, after 30 min",143 mg/dL
same,blood insulin level (I),"[1]; participant B, after 30 min",2.6 µU/mL
same,blood glucose level (G),"[1]; participant B, after 60 min",147 mg/dL
same,blood insulin level (I),"[1]; participant B, after 60 min",3 µU/mL
same,blood glucose level (G),"[1]; participant B, after 90 min",149 mg/dL
same,blood insulin level (I),"[1]; participant B, after 90 min",2 µU/mL
same,blood glucose level (G),"[1]; participant B, after 120 min",150 mg/dL
same,blood insulin level (I),"[1]; participant B, after 120 min",3.4 µU/mL
same,blood glucose level (G),"[1]; participant B, after 180 min",146 mg/dL
same,blood insulin level (I),"[1]; participant B, after 180 min",2.4 µU/mL
same,blood glucose level (G),"[1]; participant C, after 0 min",90 mg/dL
same,blood insulin level (I),"[1]; participant C, after 0 min",4.5 µU/mL
same,blood glucose level (G),"[1]; participant C, after 30 min",90 mg/dL
same,blood insulin level (I),"[1]; participant C, after 30 min",4.1 µU/mL
same,blood glucose level (G),"[1]; participant C, after 60 min",88 mg/dL
same,blood insulin level (I),"[1]; participant C, after 60 min",3.9 µU/mL
same,blood glucose level (G),"[1]; participant C, after 90 min",86 mg/dL
same,blood insulin level (I),"[1]; participant C, after 90 min",4.9 µU/mL
same,blood glucose level (G),"[1]; participant C, after 120 min",86 mg/dL
same,blood insulin level (I),"[1]; participant C, after 120 min",4 µU/mL
same,blood glucose level (G),"[1]; participant C, after 180 min",81 mg/dL
same,blood insulin level (I),"[1]; participant C, after 180 min",4 µU/mL
same,blood insulin level compared to placebo,[2]; 30 minutes after start of glucose tolerance test,significant increase
same,blood insulin level compared to placebo,[2]; [4],significant drop
same,blood glucose level compared to placebo,[3]; 90 minutes after start of glucose tolerance test,significant decrease
same,blood glucose level compared to placebo,[3]; [4],significant decrease
